≈ marks a conversion by molar mass, not a printed value. Like-named read-outs stand apart in the source and are kept apart here.
Tests used:
E. coli PBP3 = E. coli PBP3 (Escherichia coli (strain K12), UniProt P0AD68); test: E. coli PBP3 Bocillin-FL fluorescence polarization competition binding assay
In short: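 Purified PBP (1.5 μM final) was combined with test compound (0–1000 μM) and Bocillin-FL (fluorescent penicillin V, 0.1 μM final) in 50 mM Hepes pH 8.0, 300 mM NaCl, 5% glycerol.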

E. coli PBP4 = E. coli PBP4 (Escherichia coli (strain K12), UniProt P24228); test: E. coli PBP4 Bocillin-FL fluorescence polarization competition binding assay
From the text: To determine the ability of boronic acid-based test PBP inhibitors to bind Penicillin Binding Proteins (PBPs), Bocillin-FL (fluorescently-labeled penicillin V; ThermoFisher Scientific) was used in a fluorescence polarization (FP) competition binding assay to assess inhibitor binding to PBP2, PBP3 or PBP4 from Escherichia coli. PBPs were cloned and purified as described previously (King, D. T, et al., ACS Infectious Diseases 2015, 1, 175-184). To establish assay conditions for competition binding, an enzyme titration/saturation binding experiment was initially performed. Bocillin-FL was prepared at 0.2 μM in a buffer comprised of 50 mM Hepes (pH 8.0), 300 mM NaCl and 5% (v/v) glycerol. Saturation binding was performed by mixing 40 μl of PBP solutions ranging in concentrations from 0-12 μM with 40 μl of the 0.2 μM Bocillin-FL solution, in individual wells of a black 384-well microplate. FP was measured immediately upon mixing (Excitation, 490 nm; Emission, 520 nm; g-factor, 0.96), using a Cytation3 (BioTek) microplate reader and measured continuously for up to 120 minutes. […] Assays (80 μl final volume) were performed with PBPs at a final concentration of 1.5 μM, Bocillin-FL at 0.1 μM and beta-lactam concentrations that ranged from 0-1000 μM. […] Bocillin-FL was added and the FP immediately measured for 60 minutes (90 minutes for PBP2). The beta-lactam potency was reported as the concentration of beta-lactam required to reduce binding of Bocillin-FL by […] (EC50). […] Binding assays for boronic acid PBP inhibitors were performed in an identical fashion.

E. coli AG100 = test: Broth microdilution MIC, E. coli AG100 (wild-type parent); assay type: cell-based; conditions: Escherichia coli; wild-type parent E. coli AG100, broth microdilution; read-out: MIC E. coli AG100
In short: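 Broth microdilution in cation-supplemented Mueller-Hinton broth, 2-fold serial compound dilutions, inoculum 5×10^5 CFU/mL from 3-5 h log culture.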

E. coli ATCC 25922 = test: Broth microdilution MIC, E. coli ATCC 25922; assay type: cell-based; conditions: Escherichia coli
In short: (§1)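 MIC = lowest concentration showing no visible growth after 16-20 h at 37° C. Cation-adjusted MH broth, 2-fold serial dilutions, starting inoculum 5×10^5 CFU/mL, per CLSI methods.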

E. coli PBP2 = E. coli PBP2 (Escherichia coli (strain K12), UniProt P0AD65); test: E. coli PBP2 Bocillin-FL fluorescence polarization competition binding assay
In short: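 Fluorescence polarization competition with Bocillin-FL (0.1 μM final) and purified PBP2 (1.5 μM final) in 50 mM Hepes pH 8.0, 300 mM NaCl, 5% glycerol. FP (ex 490/em 520 nm) read for 90 min after Bocillin-FL addition; EC50 is the inhibitor concentration reducing Bocillin-FL binding by half.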

[1] = test system: engineered strain of Escherichia coli harboring CTX-M15; test: microbe, parasite or virus in culture; assay type: cell-based; conditions: Escherichia coli, read-out: Microbiological Activity (MIC in mg/L), E. coli DH5α/pLBII-CTX-M15, engineered strain producing CTX-M15
E. coli 901C = test: microbe, parasite or virus in culture; assay type: cell-based; conditions: Escherichia coli; hyper-permeable E. coli 901C, broth microdilution; read-out: MIC E. coli 901C
In short: as §1

K. pneumoniae UMM = test: microbe, parasite or virus in culture; assay type: cell-based; conditions: Klebsiella pneumoniae; K. pneumoniae UMM producing SHV-5 and KPC-2; read-out: MIC K. pneumoniae UMM
In short: as §1

E. coli AG100A = test: microbe, parasite or virus in culture; assay type: cell-based; conditions: Escherichia coli, read-out: MIC E. coli AG100A
In short: as §1

K. pneumoniae 848844 = test: microbe, parasite or virus in culture; assay type: cell-based, Klebsiella pneumoniae; conditions: Klebsiella pneumoniae; K. pneumoniae 848844 producing SHV-11 and KPC-2; read-out: MIC K. pneumoniae 848844
In short: as §1

P. aeruginosa ATCC 27853 = test: Broth microdilution MIC, P. aeruginosa ATCC 27853; assay type: cell-based; conditions: Pseudomonas aeruginosa, ATCC27853, read-out: MIC P. aeruginosa ATCC 27853
Description: To determine the ability of test compounds to potentiate the inhibition of the growth of bacterial strains, classic cell based broth microdilution minimum inhibitory concentration (MIC) assays were employed. MIC assays are performed according to CLSI methods except where otherwise noted (CLSI, 2011 and CLSI, 2009). The reference type strain E. coli ATCC 25922, the wild-type parent strain E. coli AG100, the hyper-permeable E. coli 901C and E. coli D22 and the E. coli AG100A strain lacking the acrAB efflux pump encoding genes were used to determine the ability of the PBP inhibitors to penetrate the outer membrane of gram-negative bacteria and inhibit bacterial growth. […] The P. aeruginosa PAO1, P. aeruginosa ATCC 27853 and A. baumannii ATCC 19606, along with the hyper-permeable P. aeruginosa ATCC 35151 and an engineered efflux pump-compromised strain of P. aeruginosa (ΔmexAB-oprM) were used to determine the ability of PBP inhibitors to penetrate the outer membrane of P. aeruginosa and A. baumannii and assess antibacterial activity against these important gram-negative organisms.
Briefly, cryo-preserved bacterial cultures of challenge strains are streaked for isolation on appropriate agar medium, in this case Mueller Hinton II agar. Following incubation to allow growth of the colonies, plates are sealed with parafilm and stored refrigerated for up to two weeks. For preparation of assay inoculum and to ensure low variability, at least 5 colonies are picked from the agar plates with an inoculating loop and aseptically transferred to a culture tube containing 3 mL of Mueller-Hinton Broth (supplemented with divalent cations to required levels based on Manufacturers' certification). The broth culture is grown for 3-5 hours at 37° C. with shaking at 200 rpm. Meanwhile, 2-fold serial dilutions of test compounds are conducted in a 96 well plate with a final volume of 75 μL per well at 2-fold the final desired concentration. After the dilution plates are set up the growing cultures are then diluted in a cuvette containing MH II broth and the optical density is measured at 600 nm. The Inoculum is diluted such that 75 μL of this culture in Mueller-Hinton Broth results in a starting bacterial concentration of 5×10^5 CFU/mL when added to the dilution plates. The plates are incubated for 16-20 hours at 37° C. The MIC values are read visually as the lowest concentration well with no bacterial growth.

A. baumannii ATCC 19606 = test: Broth microdilution MIC, A. baumannii ATCC 19606; assay type: cell-based; conditions: Acinetobacter baumannii, ATCC19606, read-out: MIC A. baumannii ATCC 19606
In short: as §1

P. aeruginosa ATCC 35151 = test: microbe, parasite or virus in culture; assay type: cell-based; conditions: Pseudomonas aeruginosa, ATCC35151; hyper-permeable P. aeruginosa ATCC 35151; read-out: MIC P. aeruginosa ATCC 35151
In short: as §1

K. pneumoniae SI-117 = test: microbe, parasite or virus in culture; assay type: cell-based; conditions: Klebsiella pneumoniae, SI117, read-out: MIC K. pneumoniae SI-117
In short: as §1

E. coli D22 = test: microbe, parasite or virus in culture; assay type: cell-based; conditions: Escherichia coli; hyper-permeable E. coli D22, broth microdilution; read-out: MIC E. coli D22
In short: as §1

[2] = test system: P. aeruginosa (ΔmexAB-oprM); test: microbe, parasite or virus in culture; assay type: cell-based; conditions: Pseudomonas aeruginosa, read-out: MIC P. aeruginosa ΔmexAB-OprM
In short: as §1

[3] = ATCC25922, read-out: MIC E. coli 25922

| SMILES | EC50 (E. coli PBP3) [µM] | EC50 (E. coli PBP4) [µM] | EC50 (E. coli PBP3; fluorescence polarization competition binding with Bocillin-FL, read-out: E. coli K12 PBP3 Potency) [µM] | MIC (E. coli AG100) [µg/mL] | MIC (E. coli ATCC 25922; ATCC25922, E. coli ATCC 25922, broth microdilution, read-out: MIC E. coli 25922) [µg/mL] | EC50 (E. coli PBP2) [µM] | MIC [1] [mg/L] | MIC (E. coli 901C) [µg/mL] | MIC (K. pneumoniae UMM) [µg/mL] | MIC (E. coli AG100A) [µg/mL] | MIC (K. pneumoniae 848844) [µg/mL] | MIC (E. coli ATCC 25922; [3]) [µg/mL] | MIC (P. aeruginosa ATCC 27853) [µg/mL] | MIC (A. baumannii ATCC 19606) [µg/mL] | MIC (P. aeruginosa ATCC 35151) [µg/mL] | MIC (K. pneumoniae SI-117) [µg/mL] | MIC (E. coli D22) [µg/mL] | MIC [2] [µg/mL] | EC50 (E. coli PBP4; assay validation with beta-lactams, PBP 1.5 μM, Bocillin-FL 0.1 μM, read-out: EC50 with PBP4 (reduction of Bocillin-FL binding)) [µM] |
| --- | --- | --- | --- | --- | --- | --- | --- | --- | --- | --- | --- | --- | --- | --- | --- | --- | --- | --- | --- |
| CCN1CCN(C(=O)N[C@H](Cc2ccc(O)c(O)c2)C(=O)N[C@H]2Cc3cccc(C(=O)O)c3OB2O)C(=O)C1=O [Example 40, (R)-3-((R)-3-(3,4-dihydroxyphenyl)-2-(4-ethyl-2,3-dioxopiperazine-1-carboxamido)propanamido)-2-hydroxy-3,4-dihydro-2H-benzo[e][1,2]oxaborinine-8-carboxylic acid] | 30 to 500 | 30 to 500 |  |  |  |  |  |  |  |  |  |  |  |  |  |  |  |  |  |
| CCN1CCN(C(=O)NC(C(=O)N[C@H]2Cc3cccc(C(=O)O)c3OB2O)c2ccc(O)cn2)C(=O)C1=O (stereo partly drawn) [Example 89, (3R)-3-(2-(4-ethyl-2,3-dioxopiperazine-1-carboxamido)-2-(5-hydroxypyridin-2-yl)acetamido)-2-hydroxy-3,4-dihydro-2H-benzo[e][1,2]oxaborinine-8-carboxylic acid] |  | 30 to 500 | < 30 | 32 to 64 | 8 to 16 | 30 to 500 | 8 to 16 (≈ 15.2 to 30.5 µM) | 0.5 to 1 | 8 to 16 | 2 to 4 |  |  |  |  |  |  |  |  |  |
| C[C@H]1CN(CCN)C(=O)C(=O)N1C(=O)N[C@@H](C(=O)N[C@H]1Cc2ccc(F)c(C(=O)O)c2OB1O)c1ccc(O)c(O)c1Cl [Example 250, (R)-3-((R)-2-((S)-4-(2-aminoethyl)-6-methyl-2,3-dioxopiperazine-1-carboxamido)-2-(2-chloro-3,4-dihydroxyphenyl)acetamido)-7-fluoro-2-hydroxy-3,4-dihydro-2H-benzo[e][1,2]oxaborinine-8-carboxylic acid] |  |  |  | 0.5 to 1 |  |  |  | 0.5 to 1 | 0.5 to 1 | 0.5 to 1 | 0.5 to 1 | 2 to 4 | 0.5 to 1 | < 0.25 | < 0.25 | 2 to 4 | 0.5 to 1 | < 0.25 |  |
| CCN1CCN(C(=O)N[C@@H](C(=O)N[C@H]2Cc3ccc(F)c(C(=O)O)c3OB2O)c2c(F)cc(O)c(O)c2Cl)C(=O)C1=O [Example 251, (R)-3-((R)-2-(2-chloro-6-fluoro-3,4-dihydroxyphenyl)-2-(4-ethyl-2,3-dioxopiperazine-1-carboxamido)acetamido)-7-fluoro-2-hydroxy-3,4-dihydro-2H-benzo[e][1,2]oxaborinine-8-carboxylic acid] |  |  |  | 0.5 to 1 |  |  |  | 0.5 to 1 | 0.5 to 1 | 0.5 to 1 | 2 to 4 | 2 to 4 | 0.5 to 1 | 0.5 to 1 | < 0.25 | 2 to 4 | 0.5 to 1 | < 0.25 |  |
| NCCCN1CCN(C(=O)N[C@@H](C(=O)N[C@H]2Cc3cccc(C(=O)O)c3OB2O)c2ncc(O)cc2F)C(=O)C1=O [Example 252, (R)-3-((R)-2-(4-(3-aminopropyl)-2,3-dioxopiperazine-1-carboxamido)-2-(3-fluoro-5-hydroxypyridin-2-yl)acetamido)-2-hydroxy-3,4-dihydro-2H-benzo[e][1,2]oxaborinine-8-carboxylic acid] |  |  |  | 8 to 16 |  |  |  | 0.5 to 1 | 8 to 16 | 0.5 to 1 | 32 to 64 | 8 to 16 | 32 to 64 | > 128 | < 0.25 | 32 to 64 | 2 to 4 | 8 to 16 |  |
| C[C@@H](O)[C@H]1C(=O)N2C(C(=O)O)=C(S[C@@H]3CN[C@H](C(=O)N(C)C)C3)[C@H](C)[C@H]12 [meropenem, reference compound] |  |  |  |  |  |  |  |  |  |  |  |  |  |  |  |  |  |  | < 2 |
